Data published in patent US20210386792A1, “A METHOD FOR INCREASING POPULATION OF SPERMATOGONIAL STEM CELLS” (priority 2018, published 2021).

Test system: C-iPS EC
Assay: GDNF ELISA in conditioned media from control iPS-derived ECs
Format: cell-based, human
Settings: 2 ng/ml FGF-2
Experimental: Testis, lung, or liver ECs were plated (10,000 cells ml^−1) on 12 well dishes coated with 0.1% gelatin and cultured for 24 hours. Conditioned media was harvested at 24 and 48 hours after FGF-2 (2 ng ml^−1, 20 ng ml^−1 and 50 ng ml^−1) treatment and analyzed by ELISA for GDNF (Promega GDNF Emax immunoassay system, #G7621) following the manufacturer's instruction. Statistics was analyzed using Graph Pad Prism. For quantification of Gdnf mRNA, total RNA was isolated from the cells using Direct-zol RNA MiniPrep (Zymo Research) and reverse transcribed using High Capacity cDNA Reverse Transcription Kit (Appliedbiosystems), according to the manufacturer's instructions. All gene expression levels were normalized to GAPDH mRNA levels.
To generate iPSC lines, either human fibroblasts/stromal cells were transduced with pMXs-based retroviral supernatant with human OCT4, SOX2, KLF4, or MYC as described^30, or mononuclear cells were infected with pHage2-CMV-RTTA-W and pHage-Tet-hSTEMMCA-loxP virus as described^31. All cells were culture on 0.1% gelatin-coated dishes in human endothelial cell medium (Lonza; EGM®-MV Bulletkit) with 50 ng ml^−1 additional VEGF. 500,000 disaggregated single embryonic bodies from human iPSCs were cultured for 48 hours. Non-adherent cells were gently removed and adherent cells were cultured for 1-2 passages. […]

fibroblast growth factor-2 [FGF-2]
GDNF production after FGF2 treatment: stimulated robust GDNF production
